Data from patent US20250144099A1, “INK4 TUMOR SUPPRESSOR PROTEINS MEDIATE RESISTANCE TO CDK4/6 KINASE INHIBITORS” (MEMORIAL SLOAN-KETTERING CANCER CENTER, priority 2021, published 2025).
“Also recorded” adds a separate entry of the source.

Key:
phosphorylation of Rb = assay: Immunoblotting of Rb phosphorylation in cells; format: cell-based, human; details: FAT1 loss / CDK6-high CDK4/6i-resistant MCF7 cells
Method: (§1) Cell lysates were collected in RIPA buffer (Thermo Fisher Scientific) supplemented with protease and phosphatase inhibitors (Pierce). Protein concentration was quantified by using the BCA kit (Fisher Scientific). […] of protein lysates were loaded onto 4-12% SDS-PAGE gels (Invitrogen) for electrophoresis and transferred onto nitrocellular membranes. Blots were blocked with Intercept™ (TBS) Blocking Buffer (LI-COR Bioscience #927-60001) and incubated with primary antibody at 4° C. overnight. Secondary antibodies conjugated with fluorescence (LI-COR Bioscience #926-68071 and #926-32210) were incubated for 1 h at room temperature and blots were scanned by Odyssey Clx Imaging System from LI-COR Bioscience.

[1] = tested on: CDK6-overexpressing xenografts; assay: Efficacy study, cell-derived xenograft; format: in vivo, NSG mice; details: 25-35 days
Method: (§2) Efficacy study. NOD.Cg-Prkdc Il2rg<tm1Wjl>/SzJ (NSG) mice were obtained from the Jackson Laboratory (Stock #: 005557). Each mouse was injected with MCF7 parental, CDK6-ovexpressing or PTEN loss cells subcutaneously 1 week after the implantation of estradiol pellets (25 mg). […] Tumor volumes were recorded every 3-4 days. Mice were sacrificed if tumors reached 1000 mm^3 or at the end of the experiment. Tumors were collected and processed as described above.

[2] = tested on: shPTEN (PTEN loss) xenografts; assay: Efficacy study, cell-derived xenograft; format: in vivo, NSG mice; details: 25-35 days
Method: as §2

[3] = tested on: MCF7 parental cell-derived xenografts; assay: Efficacy study, cell-derived xenograft; format: in vivo, NSG mice; details: ribociclib 25 mg/kg p.o., BSJ-05-017 50 mg/kg i.p., BSJ-03-096 50 mg/kg p.o., 25-35 days
Method: as §2

[4] = tested on: patient-derived xenograft models; assay: Patient-derived xenograft tumor growth; format: in vivo, mice; details: two patient-derived xenograft models; ribociclib at clinical equivalent dose
CDK6 = CDK6 (Homo sapiens, UniProt Q00534); assay: Immunoblotting of CDK6 degradation in cells; format: cell-based; set-up: MCF7 cells that lost FAT1 expression and with high CDK6 expression; endogenous in cells; host or cells: MCF-7 FAT1 loss cells (also MCF-7 parental)
Method: as §1

MOLT4 cells = assay: Global quantitative mass spectrometry proteomics; format: cell-based, human; details: 250 nM, 5 h
Method: Molt4 cells were treated with 250 nM of compounds BSJ-05-017 or BSJ-03-096 (singlicate) or DMSO control (biological triplicate) for 5 hours. Cells were harvested by centrifugation and prepared for mass spectrometry as described previously (28). Data were collected as reported (28). LC-MS data were analyzed using Proteome Discoverer 2.4 (Thermo Fisher Scientific), as previously described (28). Reporter ion intensities were normalized and scaled using in-house scripts in the R framework (63). Statistical analysis was carried out using the limma package within the R framework (64).

Pharmacokinetic study = format: in vivo, C57BL/6 male mice
Method: Pharmacokinetic study. C57BL/6 male mice were dosed with BSJ-05-017 solution formulation (i.p., 5/95 DMSO/10% captisol, dose 25 mg/kg) and BSJ-03-096 solution formulation (p.o., 5/95 DMSO/10%, dose 10 mg/kg). Blood samples were collected at 0.08, 0.25, 0.5, 1, 2, 4, 6, 8 and 24 hr. The blood samples were collected from sets of three mice at each time point in microcentrifuge tubes containing K2EDTA as an anticoagulant. Plasma samples were separated by centrifugation and stored below −70° C. until bioanalysis. All samples were processed for analysis by precipitation using acetonitrile and analyzed with a partially validated LC/MS/MS method (LLOQ −1.22 ng/mL for IV and PO, LLOQ −5.02 ng/mL for IP). Pharmacokinetic parameters were calculated using the noncompartmental analysis tool of WinNonlin Enterprise software (Version 6.3).

CDK4 = molecular target: T1, CDK4 (Homo sapiens, UniProt P11802); assay: Immunoblotting of CDK4 degradation in cells; format: cell-based
T1 construct: CDK4 and CDK6 were immunoprecipitated from isogenic drug sensitive (MCF7 parental cells with low CDK6); endogenous in cells; host or cells: MCF-7 parental and MCF-7 FAT1 CRISPR knockout (CDK6-high) cells
Method: as §1

[5] = tested on: MCF-7 CDK6-high cells (FAT1 loss); assay: Cell viability assay (Resazurin); format: cell-based, human; details: day 7
Method: (§3) Cell viability was measured by Resazurin (R&D Systems, Minneapolis, MN, USA) as described previously (51). Briefly, 1,500 cells were seeded in a 96-well plate and allowed to recover overnight. Cells were treated with drugs at day 0. Resazurin was added to the cells 4 hours prior to the measurements on day 3, day 5 and day 7. Fluorescent intensity was measured using a microplate reader (SpectraMax M5, Molecular Devices, Sunnyvale, CA, USA). IC50 was calculated by GraphPad Prism 7.0 using a sigmoidal regression model.

MCF-7 parental cells = assay: Cell viability assay (Resazurin); format: cell-based, human; details: day 7
Method: as §3

[6] = BSJ-05-017 50 mg/kg i.p., BSJ-03-096 50 mg/kg p.o.
[7] = FAT1 loss / CDK6-high CDK4/6i-resistant MCF7 cells, 24 h treatment
[8] = MCF7 cells with overexpression of CDK6

T1 sequence (P11802 whole entry): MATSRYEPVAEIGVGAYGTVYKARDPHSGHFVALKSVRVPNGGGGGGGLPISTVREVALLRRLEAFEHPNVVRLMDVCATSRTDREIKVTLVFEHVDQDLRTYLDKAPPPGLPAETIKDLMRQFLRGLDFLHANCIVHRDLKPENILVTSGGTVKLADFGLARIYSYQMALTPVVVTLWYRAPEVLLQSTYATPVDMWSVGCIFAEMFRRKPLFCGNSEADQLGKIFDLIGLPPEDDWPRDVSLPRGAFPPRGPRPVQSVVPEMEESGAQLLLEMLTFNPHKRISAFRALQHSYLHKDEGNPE
T1 sequence (P24385 whole entry partner): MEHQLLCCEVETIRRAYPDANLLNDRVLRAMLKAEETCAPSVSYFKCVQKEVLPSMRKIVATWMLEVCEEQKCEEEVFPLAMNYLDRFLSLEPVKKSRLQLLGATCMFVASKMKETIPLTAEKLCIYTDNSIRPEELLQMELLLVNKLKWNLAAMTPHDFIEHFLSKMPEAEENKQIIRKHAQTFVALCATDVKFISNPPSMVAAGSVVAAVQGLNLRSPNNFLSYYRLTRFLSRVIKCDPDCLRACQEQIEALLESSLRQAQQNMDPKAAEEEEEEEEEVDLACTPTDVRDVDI
Sequence of CDK6 (Q00534 whole entry): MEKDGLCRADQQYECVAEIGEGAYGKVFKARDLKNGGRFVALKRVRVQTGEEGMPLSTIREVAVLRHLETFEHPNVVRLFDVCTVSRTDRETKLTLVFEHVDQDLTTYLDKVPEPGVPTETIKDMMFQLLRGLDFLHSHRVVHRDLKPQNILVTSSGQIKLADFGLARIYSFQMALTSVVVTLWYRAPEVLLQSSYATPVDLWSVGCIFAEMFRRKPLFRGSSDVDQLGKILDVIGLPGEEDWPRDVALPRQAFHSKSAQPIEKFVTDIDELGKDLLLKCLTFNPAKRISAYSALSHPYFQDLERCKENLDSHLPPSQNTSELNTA

Row | degradation of CDK6 (CDK6; [7]) | degradation of CDK4 (CDK4; [7]) | SMILES | inhibition of phosphorylation of Rb (and downstream E2F1/cyclin A2) (phosphorylation of Rb) | also measured
1 | effective in degrading CDK4/6 | effective in degrading CDK4/6 | CC(=O)c1c(C)c2cnc(Nc3ccc(N4CCN(CCC5CCCCN5c5ccc6c(c5)C(=O)N(C5CCC(=O)NC5=O)C6=O)CC4)cn3)nc2n(C2CCCC2)c1=O (stereo not drawn) [AM-01-275, 6-(2-(2-(4-(6-((6-acetyl-8-cyclopentyl-5-methyl-7-oxo-7,8-dihydropyrido[2,3-d]pyrimidin-2-yl)amino)pyridin-3-yl)piperazin-1-yl)ethyl)piperidin-1-yl)-2-(2,6-dioxopiperidin-3-yl)-3a,4-dihydro-1H-isoindole-1,3(2H)-dione] | inhibiting phosphorylation of Rb | 
2 |  |  | CN(C)C(=O)c1cc2cnc(Nc3ccc(N4CCNCC4)cn3)nc2n1C1CCCC1 [ribociclib, reference compound] |  | tumor response ([1]; ribociclib 25 mg/kg p.o.): tumor outgrowth after initial response; tumor response ([2]; ribociclib 25 mg/kg p.o.): tumor outgrowth after initial response; tumor response [3]: sensitive; inhibition of tumor growth [4]: does not inhibit their growth effectively
3 | effective in degrading CDK4/6 | effective in degrading CDK4/6 | CC(=O)c1c(C)c2cnc(Nc3ccc(N4CCN(CCC5CCN(c6ccc7c(c6)C(=O)N(C6CCC(=O)NC6=O)C7=O)CC5)CC4)cn3)nc2n(C2CCCC2)c1=O (stereo not drawn) [AM-01-269, 5-(4-(2-(4-(6-((6-acetyl-8-cyclopentyl-5-methyl-7-oxo-7,8-dihydropyrido[2,3-d]pyrimidin-2-yl)amino)pyridin-3-yl)piperazin-1-yl)ethyl)piperidin-1-yl)-2-(2,6-dioxopiperidin-3-yl)isoindoline-1,3-dione] | inhibiting phosphorylation of Rb | 
4 | effective in degrading CDK4/6 | effective in degrading CDK4/6 | CC(=O)c1c(C)c2cnc(Nc3ccc(N4CCN(CCCC5CCN(c6cccc7c6C(=O)N(C6CCC(=O)NC6=O)C7=O)CC5)CC4)cn3)nc2n(C2CCCC2)c1=O (stereo not drawn) [MS-02-24] | inhibiting phosphorylation of Rb | 
5 | effectively degrade CDK4/CDK6 | effectively degrade CDK4/CDK6 | CC(=O)c1c(C)c2cnc(Nc3ccc(N4CCN(CCC5CC(CNc6cccc7c6C(=O)N(C6CCC(=O)NC6=O)C7=O)C5)CC4)cn3)nc2n(C2CCCC2)c1=O (stereo not drawn) [AM-01-125, 4-(((3-(2-(4-(6-((6-acetyl-8-cyclopentyl-5-methyl-7-oxo-7,8-dihydropyrido[2,3-d]pyrimidin-2-yl)amino)pyridin-3-yl)piperazin-1-yl)ethyl)cyclobutyl)methyl)amino)-2-(2,6-dioxopiperidin-3-yl)isoindoline-1,3-dione] | inhibit phosphorylation of Rb | 
6 | effectively degrade CDK4/CDK6 | effectively degrade CDK4/CDK6 | CC(=O)c1c(C)c2cnc(Nc3ccc(N4CCN(CCC5CCN(c6cccc7c6C(=O)N(C6CCC(=O)NC6=O)C7=O)CC5)CC4)cn3)nc2n(C2CCCC2)c1=O (stereo not drawn) [MS-01-303, 4-(4-(2-(4-(6-((6-acetyl-8-cyclopentyl-5-methyl-7-oxo-7,8-dihydropyrido[2,3-d]pyrimidin-2-yl)amino)pyridin-3-yl)piperazin-1-yl)ethyl)piperidin-1-yl)-2-(2,6-dioxopiperidin-3-yl)isoindoline-1,3-dione] | inhibit phosphorylation of Rb | 

Row | SMILES | degradation of CDK6 (CDK6; [7]) | degradation of CDK4 (CDK4; [7]) | inhibition of phosphorylation of Rb (and downstream E2F1/cyclin A2) (phosphorylation of Rb) | also measured
7 | CC(=O)c1c(C)c2cnc(Nc3ccc(N4CCN(CC5CCN(c6ccc7c(c6)C(=O)N(C6CCC(=O)NC6=O)C7=O)CC5)CC4)cn3)nc2n(C2CCCC2)c1=O (stereo not drawn) [BSJ-03-096, 5-(4-((4-(6-((6-acetyl-8-cyclopentyl-5-methyl-7-oxo-7,8-dihydropyrido[2,3-d]pyrimidin-2-yl)amino)pyridin-3-yl)piperazin-1-yl)methyl)piperidin-1-yl)-2-(2,6-dioxopiperidin-3-yl)isoindoline-1,3-dione] | most significant degradation of both CDK4 and CDK6; also recorded: effective in degrading both CDK4 and CDK6; also recorded: high potency in degrading CDK4 and CDK6 | most significant degradation of both CDK4 and CDK6; also recorded: effective in degrading both CDK4 and CDK6; also recorded: high potency in degrading CDK4 and CDK6 | efficiently inhibit the phosphorylation of Rb protein; also recorded: effective inhibition of the phosphorylation of Rb | durable tumor inhibition (percent) [1, 6]: −68.9%; durable tumor inhibition (percent) [2, 6]: −54.9%; tumor response [3]: sensitive; inhibition of tumor growth [4]: effective in inhibiting tumor growth; degradation of CDK6 (CDK6; [8]): effectively degrade CDK4 and CDK6; selectivity in global proteomics (MOLT4 cells): highly selective for CDK4 and CDK6; Cmax (Pharmacokinetic study; male, C57BL/6, mouse, plasma, po, single dose 10 mg/kg p.o.): 900 nM; concentration at 24 h (Pharmacokinetic study; male, C57BL/6, mouse, plasma, po, single dose 10 mg/kg p.o., read-out: plasma concentration at 24h post dosing): ~100 nM; metabolic stability (Pharmacokinetic study; single dose in mice, i.p. or p.o.): good metabolic stability; degradation of CDK4 (CDK4; [8]): effectively degrade CDK4 and CDK6
8 | CC(=O)c1c(C)c2cnc(Nc3ccc(N4CCN(CCOCCOCCOCCNC(=O)COc5cccc6c5C(=O)N(C5CCC(=O)NC5=O)C6=O)CC4)cn3)nc2n(C2CCCC2)c1=O (stereo not drawn) [BSJ-03-123, N-(2-(2-(2-(2-(4-(6-((6-acetyl-8-cyclopentyl-5-methyl-7-oxo-7,8-dihydropyrido[2,3-d]pyrimidin-2-yl)amino)pyridin-3-yl)piperazin-1-yl)ethoxy)ethoxy)ethoxy)ethyl)-2-((2-(2,6-dioxopiperidin-3-yl)-1,3-dioxoisoindolin-4-yl)oxy)acetamide, reference compound] | dose dependent targeting of CDK6; also recorded: effective CDK6 degradation; also recorded: dose-dependent degradation of CDK6 | not CDK4; also recorded: no effect on CDK4 |  | inhibition of cell growth [5]: does not effectively inhibit the growth; inhibition of cell growth (MCF-7 parental cells): does not effectively inhibit the growth
